Measured values: patent US6730691B1, “Uses of alpha adrenergic blocking agents” (priority 2000, dated 2004)
Counter-ions that a name gives are not always drawn.

What was measured:
[1] = test system: subjects who had undergone surgical implantation of a refractive intraocular lens, experiencing photophobia, glare, secondary images and haloing; experiment: Topical thymoxamine ophthalmic solution in subjects after implantation of a refractive intraocular lens; assay type: in vivo, human; details: three subjects
Experimental: A suitable ophthalmic solution was prepared containing about 0.5% by weight thymoxamine by the Moorfields Eye Hospital, London, England having the following composition: Applicant believes that the aqueous ophthalmic solution was prepared by dissolving the sodium acetate, boric acid and phenylmercuric nitrate in most of the purified water. Dissolution was promoted by heating the solution. Upon cooling the solution to room temperature, the thymoxamine hydrochloride was added and was dissolved without further heating. The remainder of the purified water was then added to reach a final volume of 100 ml. Sterilization of the solution was achieved by filtering it through a sterilizing filter. Three subjects, each of whom had undergone surgical implantation of a refractive intraocular lens, were selected for study. Each of the three subjects complained of experiencing photophobia, glare, secondary images and haloing, especially at night. Each of the three subjects received an approximately one drop dose twice daily of an ophthalmic solution containing 0.5% by weight of thymoxamine. […] Each of the subjects continued application of approximately a one drop dose on an as needed basis for a period of one month.

[2] = test system: patients who had undergone radial keratotomy and who each experienced glare and halos; experiment: Topical thymoxamine ophthalmic solution in patients after radial keratotomy; assay type: in vivo, human; details: two radial keratotomy patients; similarly treated with 0.5% by weight solution

CC(=O)Oc1cc(C(C)C)c(OCCN(C)C)cc1C [thymoxamine, thymoxamine hydrochloride]
induced myopia or headaches ([1]; 0.5% by weight solution, one day period): without experiencing induced myopia or headaches | irritation from the topical application to the eye ([1]; after administration of a dosage of 0.5% by weight solution): mild irritation | undesirable visual anomalies once treatment was terminated ([1]; after termination of treatment): returned to each of the three subjects | undesirable visual anomaly during the usage period ([1]; approximately one drop as needed for one month): None of the subjects have experienced the previously complained of undesirable visual anomaly | previously complained of undesirable visual anomaly (photophobia, glare, secondary images, haloing) ([1]; approximately one drop twice daily of 0.5% by weight solution, one day period): elimination of the previously complained of undesirable visual anomaly | glare and halos after treatment [2]: comparable results
